From patent US7459477B2, “Substituted N-phenyl-phenoxy nicotinic acid-(thio)amides and their use as herbicides” (Nihon Nohyaku, Co., Ltd., priority 2001, dated 2008)

Legend:
Type in all cases: in vivo
[1] = test system: Two-Spotted Spider Mite (Tetranychus Urticae); assay: Acaricidal effect on two-spotted spider mite (Test Example 3); conditions: 500 ppm; kidney bean leaf disc with female adults sprayed; two days after the treatment; 25° C.
Protocol: Acaricidal Effect on Two-Spotted Spider Mite (Tetranychus Urticae)
A leaf disc with a diameter of 2 cm was made of a kidney bean leaf, placed on wet filter paper, inoculated with female adult two-spotted spider mites, and then uniformly sprayed, on a turntable, with 50 ml of a liquid chemical prepared by diluting a preparation containing each compound listed in Tables 1 to 4 as an active ingredient to adjust the concentration to 500 ppm. After the spraying, the leaf disc was allowed to stand in a room thermostated at 25° C. Two days after the treatment with the preparation, the dead insects were counted and the acaricidal effect was judged according to the criterion shown in Test Example 1. The test was carried out with two replications of 10 insects.

[2] = test system: powdery mildew fungus (Erysiphe graminis hordei); assay: Controlling effect on barley powdery mildew (Test Example 5); conditions: 200 ppm; potted barley at 1 leaf stage sprayed one day after inoculation; one week after the inoculation; 25° C.
Protocol: Controlling Effect on Barley Powdery Mildew Potted barley plants at the 1 leaf stage were inoculated with spores of powdery mildew fungus (Erysiphe graminis hordei) by sprinkling. After one day, they were sprayed with a liquid chemical prepared by diluting a preparation containing each compound listed in Table 1, Table 3 or Table 4 as an active ingredient to adjust the concentration to 200 ppm. Then, they were allowed to stand in a room thermostated at 25° C. One week after the inoculation, the lesion area of each leaf was measured and then compared with that on the untreated plot, whereby the controlling effect was judged according to the following criterion. Criterion for Judgment: • A: control efficacy 100 to 95% • B: control efficacy 94 to 80% • C: control efficacy 79 to 60% • D: control efficacy 59 to 0%

[3] = test system: Diamond Back Moth (Plutella xylostella); assay: Insecticidal effect on diamond back moth (Test Example 1); conditions: 500 ppm; Chinese cabbage seedling with eggs immersed about 30 seconds; six days after the immersion; 25° C.
Description: Insecticidal Effect on Diamond Back Moth (Plutella xylostella)
Adult diamond back moths were released and allowed to oviposit on a Chinese cabbage seedling. Two days after the release, the seedling having the eggs deposited thereon was immersed for about 30 seconds in a liquid chemical prepared by diluting a preparation containing each compound listed in Tables 1 to 4 as an active ingredient to adjust the concentration to 500 ppm. After air-dryness, it was allowed to stand in a room thermostatted at 25° C. Six days after the immersion, the hatched insects were counted. The mortality was calculated according to the following equation and the insecticidal effect was judged according to the criterion shown below. The test was carried out with triplicate groups of 10 insects.

[4] = test system: Smaller Tea Tortrix (Adxophyes sp.); assay: Insecticidal effect on smaller tea tortrix (Test Example 2); conditions: 500 ppm; tea leaves immersed about 30 seconds, inoculated with larvae; eight days after the inoculation; 25° C., humidity 70%
Protocol: Insecticidal Effect on Smaller Tea Tortrix (Adxophyes sp.)
Tea leaves were immersed for about 30 seconds in a liquid chemical prepared by diluting a preparation containing each compound listed in Tables 1 to 4 as an active ingredient to adjust the concentration to 500 ppm. After air-dryness, the tea leaves were placed in a plastic Petri dish with a diameter of 9 cm and inoculated with larvae of smaller tea tortrix, after which the dish was allowed to stand in a room thermostatted at 25° C. and having a humidity of 70%. Eight days after the inoculation, the dead and alive were counted. The mortality was calculated according to the following equation and the insecticidal effect was judged according to the criterion shown in Test Example 1. The test was carried out with triplicate groups of 10 insects.

[5] = test system: Green Peach Aphid (Myzus Persicae); assay: Insecticidal effect on green peach aphid (Test Example 4); conditions: 500 ppm; stems and leaves of Chinese cabbage sprayed; six days after the spraying; greenhouse
Description: Insecticidal Effect on Green Peach Aphid (Myzus Persicae)
A Chinese cabbage plant was planted in each of plastic pots with a diameter of 8 cm and a height of 8 cm, and green peach aphids were propagated on the plant. Then, the stems and leaves were sufficiently sprayed with a liquid chemical prepared by diluting a preparation containing each compound listed in Tables 1 to 4 as an active ingredient to adjust the concentration to 500 ppm. After air-drying, the pots were allowed to stand in a greenhouse. Six days after the spraying, green peach aphids parasitic on each Chinese cabbage plant were counted and the control efficacy was calculated, whereby the […] effect was judged according to the criterion shown below. Control efficacy (%)=100−[(T×Ca)/(Ta×C)]×100 • Ta: number of parasites before spraying in treated group, • T: number of parasites after spraying in treated group,
Ca: number of parasites before spraying in untreated group, • […]: number of parasites after spraying in untreated group. Criterion for Judgment: • A: control efficacy 100% • B: control efficacy 99 to 90% • C: control efficacy 89 to 80% • D: control efficacy 79 to 50%

Row | Compound | acaricidal effect (mortality rating) [1] | controlling effect (control efficacy rating, lesion area) [2] | insecticidal effect (mortality rating) [3] | insecticidal effect (mortality rating) [4] | control efficacy rating [5]
1 | Cc1cc(C(=O)Nc2ccc(C(C(F)(F)F)C(F)(F)F)cc2C(C)CC(C)C)n(C)n1 (stereo not drawn) [4-3] | B or higher | B or higher |  |  | 
2 | CC(C)c1cc(C(F)(C(F)(F)F)C(F)(F)F)ccc1NC(=O)c1cn(C)nc1C(F)(F)F [1-5] |  | B or higher |  |  | 
3 | CC(C)CC(C)c1cc(C(C(F)(F)F)C(F)(F)F)ccc1NC(=O)c1cnn(C)c1[S+](C)[O-] (stereo not drawn) [1-47] |  | B or higher |  |  | 
4 | CCn1ncc(C(=O)Nc2ccc(C(C(F)(F)F)C(F)(F)F)cc2C(C)CC(C)C)c1Br (stereo not drawn) [1-54] | B or higher | B or higher |  |  | 
5 | CCCC(C)c1cc(C(OC)(C(F)(F)F)C(F)(F)F)ccc1NC(=O)c1c(C)nn(C)c1Cl (stereo not drawn) [1-23] | B or higher | B or higher |  |  | 
6 | Cn1cc(C(=O)Nc2ccc(C(F)(C(F)(F)F)C(F)(F)F)c3c2CCCC3)c(C(F)(F)F)n1 [1-12] |  | B or higher |  |  | 
7 | CC(C)CC(C)c1cc(C(C(F)(F)F)C(F)(F)F)ccc1NC(=O)c1cnn(CCF)c1Cl (stereo not drawn) [1-52] | B or higher | B or higher | B or higher | B or higher | B or higher
8 | CCn1nc(C)c(C(=O)Nc2ccc(C(O)(C(F)(F)F)C(F)(F)F)cc2C(C)CC(C)C)c1Br (stereo not drawn) [1-83] |  | B or higher |  |  | 
9 | CC(C)CC(C)c1cc(C(C(F)(F)F)C(F)(F)F)ccc1NC(=O)c1sccc1Cl (stereo not drawn) [3-28] |  |  |  | B or higher | 
10 | CC(C)CC(C)c1cc(C(C(F)(F)F)C(F)(F)F)ccc1NC(=O)c1cn(C)nc1C(F)(F)F (stereo not drawn) [1-30] |  | B or higher |  |  | 
11 | Cc1c(C(=O)Nc2ccc(C(C(F)(F)F)C(F)(F)F)cc2C(C)CC(C)C)cnn1C (stereo not drawn) [1-45] |  | B or higher |  |  | 
12 | CC(C)CC(C)c1cc(C(C(F)(F)F)C(F)(F)F)ccc1NC(=O)c1c(C(F)(F)F)nn(C)c1Cl (stereo not drawn) [Compound No. 1-103, N-{2-(1,3-dimethylbutyl)-4-[2,2,2-trifluoro-1-(trifluoromethyl)ethyl]phenyl}-5-chloro-1-methyl-3-trifluoromethylpyrazole-4-carboxamide] | B or higher |  | B or higher | B or higher | 
13 | Cc1c(C(=O)Nc2ccc(C(C(F)(F)F)C(F)(F)F)cc2C(C)CC(C)C)c(Cl)nn1C (stereo not drawn) [1-60] |  |  |  | B or higher | 
14 | CC(C)CC(C)c1cc(C(C(F)(F)F)C(F)(F)F)ccc1NC(=O)c1snnc1C(F)(F)F (stereo not drawn) [3-12] |  |  | B or higher | B or higher | 
15 | CCCc1nn(C)c(Cl)c1C(=O)Nc1ccc(C(C(F)(F)F)C(F)(F)F)cc1C(C)CC(C)C (stereo not drawn) [1-133] |  | B or higher | B or higher |  | 
16 | COC(c1ccc(NC(=O)c2sccc2I)c(C(C)CC(C)C)c1)(C(F)(F)F)C(F)(F)F (stereo not drawn) [3-31] |  | B or higher |  | B or higher | 
17 | CC(C)CC(C)c1cc(C(C(F)(F)F)C(F)(F)F)ccc1NC(=O)c1sccc1I (stereo not drawn) [3-30] |  | B or higher |  | B or higher | 
